Measured values reported in patent publication US12268667B2, “JAK1 pathway inhibitors for the treatment of prurigo nodularis” (Incyte Corporation, priority 2021, dated 2025).
Blank lines part the entries; values can stand above or below the molecule they belong to.

Tests used:
[1] = molecular target: human JAK2 (a.a. 828-1132) (Homo sapiens (Human), UniProt O60674); assay: In vitro JAK kinase assay (HTRF), JAK2; type: biochemical; details: JAK2/JAK1 IC50 ratio at 1 mM ATP
Description: (§1) The catalytic activity of JAK1, JAK2 or JAK3 are assayed by measuring the phosphorylation of a biotinylated peptide. The phosphorylated peptide was detected by homogenous time resolved fluorescence (HTRF). […] Reactions are carried out at room temperature for 1 hour and then stopped with 20 μL 45 mM EDTA, 300 nM SA-APC, 6 nM Eu-Py20 in assay buffer (Perkin Elmer, Boston, MA). Binding to the Europium labeled antibody takes place for 40 minutes and HTRF signal was measured on a Fusion plate reader (Perkin Elmer, Boston, MA).

[2] = molecular target: human JAK1 (a.a. 837-1142) (Homo sapiens, UniProt P23458); assay: In vitro JAK kinase assay (HTRF), JAK1; type: biochemical; details: 1 mM ATP
Description: as §1

IL-31 = details: cited from earlier work
PN lesional skin = details: PN skin cultured with nemolizumab; cited from earlier work

Sequence of human JAK2 (a.a. 828-1132) (O60674 828-1132): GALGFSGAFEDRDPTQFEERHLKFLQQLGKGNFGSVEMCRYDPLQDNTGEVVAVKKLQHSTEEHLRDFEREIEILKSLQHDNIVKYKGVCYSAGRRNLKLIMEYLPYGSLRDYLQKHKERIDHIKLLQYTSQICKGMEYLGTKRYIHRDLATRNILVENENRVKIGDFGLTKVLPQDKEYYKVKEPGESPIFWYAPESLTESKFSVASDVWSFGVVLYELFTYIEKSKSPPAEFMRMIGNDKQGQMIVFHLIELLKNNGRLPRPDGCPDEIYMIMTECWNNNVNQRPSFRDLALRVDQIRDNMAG

Molecule: C[C@H](O)CNCc1cc(OC2CCN([C@H]3C[C@](CC#N)(n4cc(-c5ncnc6[nH]ccc56)cn4)C3)CC2)nc(C(F)(F)F)c1 [Compound 25, {trans-3-(4-{[4-({[(2S)-2-hydroxypropyl]amino}methyl)-6-(trifluoromethyl)pyridin-2-yl]oxy}piperidin-1-yl)-1-[4-(7H-pyrrolo[2,3-d]pyrimidin-4-yl)-1H-pyrazol-1-yl]cyclobutyl}acetonitrile]
JAK2/JAK1 [1]: >10 | IC50 [2]: < 10 nM

Molecule: C[C@H](NC(=O)c1cc(F)c(N2CC(CC#N)(n3cc(-c4ncnc5[nH]ccc45)cn3)C2)cc1F)C(F)(F)F [Compound 16, 4-{3-(cyanomethyl)-3-[4-(7H-pyrrolo[2,3-d]pyrimidin-4-yl)-1H-pyrazol-1-yl]azetidin-1-yl}-2,5-difluoro-N-[(1S)-2,2,2-trifluoro-1-methylethyl]benzamide]
JAK2/JAK1 [1]: >10 | IC50 [2]: < 10 nM

Molecule: N#CC[C@]1(n2cc(-c3ncnc4[nH]ccc34)cn2)C[C@H](N2CCC(Oc3cc(CN4CCC[C@H]4CO)cc(C(F)(F)F)n3)CC2)C1 [Compound 12, {trans-3-(4-{[4-{[(2S)-2-(hydroxymethyl)pyrrolidin-1-yl]methyl}-6-(trifluoromethyl)pyridin-2-yl]oxy}piperidin-1-yl)-1-[4-(7H-pyrrolo[2,3-d]pyrimidin-4-yl)-1H-pyrazol-1-yl]cyclobutyl}acetonitrile]
JAK2/JAK1 [1]: >10 | IC50 [2]: < 10 nM

Molecule: C[C@@H](CO)NCc1cc(OC2CCN([C@H]3C[C@](CC#N)(n4cc(-c5ncnc6[nH]ccc56)cn4)C3)CC2)nc(C(F)(F)F)c1 [Compound 23, {trans-3-(4-{[4-({[(1S)-2-hydroxy-1-methylethyl]amino}methyl)-6-(trifluoromethyl)pyridin-2-yl]oxy}piperidin-1-yl)-1-[4-(7H-pyrrolo[2,3-d]pyrimidin-4-yl)-1H-pyrazol-1-yl]cyclobutyl}acetonitrile]
JAK2/JAK1 [1]: >10 | IC50 [2]: < 10 nM

B1: nemolizumab (antibody, chains of the INN, looked up)
heavy: QVQLVQSGAEVKKPGASVKVSCKASGYTFTGYIMNWVRQAPGQGLEWMGLINPYNGGTDYNPQFQDRVTITADKSTSTAYMELSSLRSEDTAVYYCARDGYDDGPYTLETWGQGTLVTVSSASTKGPSVFPLAPSSKSTSGGTAALGCLVKDYFPEPVTVSWNSGALTSGVHTFPAVLQSSGLYSLSSVVTVPSSNFGTQTYTCNVDHKPSNTKVDKTVERKSCVECPPCPAPPVAGPSVFLFPPKPKDTLMISRTPEVTCVVVDVSQEDPEVQFNWYVDGVEVHNAKTKPREEQFNSTFRVVSVLTVVHQDWLNGKEYKCKVSNKGLPAPIEKTISKTKGQPREPQVYTLPPSQEEMTKNQVSLTCLVKGFYPSDIAVEWESNGQPENNYKTTPPMLDSDGSFFLYSKLTVDKSRWQEGNVFSCSVMHEALHNHYTQKSLSLSP
light: DIQMTQSPSSLSASVGDRVTITCQASEDIYSFVAWYQQKPGKAPKLLIYNAQTEAQGVPSRFSGSGSGTDFTLTISSLQPEDFATYYCQHHYDSPLTFGGGTKVEIKRTVAAPSVFIFPPSDEQLKSGTASVVCLLNNFYPREAKVQWKVDNALQSGNSQESVTEQDSKDSTYSLSSTLTLSKADYEKHKVYACEVTHQGLSSPVTKSFNRGEC
effect on pruritus and skin lesions in PN patients (IL-31): improvement in pruritus and skin lesions | IL-17 levels in lesional skin (PN lesional skin): reduction in IL-17 levels

The next lines start with the values.

JAK2/JAK1 [1]: >10 | IC50 [2]: < 10 nM
Molecule: N#CCC1(n2cc(-c3ncnc4[nH]ccc34)cn2)CN(C2CCN(C(=O)c3ccnc(C(F)(F)F)c3F)CC2)C1 [Compound 4, {1-{1-[3-Fluoro-2-(trifluoromethyl)isonicotinoyl]piperidin-4-yl}-3-[4-(7H-pyrrolo[2,3-d]pyrimidin-4-yl)-1H-pyrazol-1-yl]azetidin-3-yl}acetonitrile]

JAK2/JAK1 [1]: >10 | IC50 [2]: < 10 nM
Molecule: N#CCC1(n2cc(-c3ncnc4[nH]ccc34)cn2)CN([C@H]2CC[C@@H](Oc3cc(CCO)nc(C(F)(F)F)n3)CC2)C1 [Compound 18, {1-(cis-4-{[6-(2-hydroxyethyl)-2-(trifluoromethyl)pyrimidin-4-yl]oxy}cyclohexyl)-3-[4-(7H-pyrrolo[2,3-d]pyrimidin-4-yl)-1H-pyrazol-1-yl]azetidin-3-yl}acetonitrile]

JAK2/JAK1 [1]: >10 | IC50 [2]: < 10 nM
Molecule: C[C@@H](O)CNCc1cc(OC2CCN([C@H]3C[C@](CC#N)(n4cc(-c5ncnc6[nH]ccc56)cn4)C3)CC2)nc(C(F)(F)F)c1 [Compound 24, {trans-3-(4-{[4-({[(2R)-2-hydroxypropyl]amino}methyl)-6-(trifluoromethyl)pyridin-2-yl]oxy}piperidin-1-yl)-1-[4-(7H-pyrrolo[2,3-d]pyrimidin-4-yl)-1H-pyrazol-1-yl]cyclobutyl}acetonitrile]

JAK2/JAK1 [1]: >10 | IC50 [2]: < 10 nM
Molecule: N#CC[C@]1(n2cc(-c3ncnc4[nH]ccc34)cn2)C[C@H](N2CCC(Oc3cc(CCO)cc(C(F)(F)F)n3)CC2)C1 [Compound 26, {trans-3-(4-{[4-(2-hydroxyethyl)-6-(trifluoromethyl)pyridin-2-yl]oxy}piperidin-1-yl)-1-[4-(7H-pyrrolo[2,3-d]pyrimidin-4-yl)-1H-pyrazol-1-yl]cyclobutyl}acetonitrile]

JAK2/JAK1 [1]: >10 | IC50 [2]: < 10 nM
Molecule: CCNCc1cc(O[C@H]2CC[C@@H](N3CC(CC#N)(n4cc(-c5ncnc6[nH]ccc56)cn4)C3)CC2)nc(C(F)(F)F)c1 [Compound 19, {1-(cis-4-{[4-[(ethylamino)methyl]-6-(trifluoromethyl)pyridin-2-yl]oxy}cyclohexyl)-3-[4-(7H-pyrrolo[2,3-d]pyrimidin-4-yl)-1H-pyrazol-1-yl]azetidin-3-yl}acetonitrile]

JAK2/JAK1 [1]: >10 | IC50 [2]: < 10 nM
Molecule: N#CCC1(n2cc(-c3ncnc4[nH]ccc34)cn2)CN([C@H]2CC[C@@H](Oc3cc(CN4CC[C@@H](O)C4)cc(C(F)(F)F)n3)CC2)C1 [Compound 21, {1-(cis-4-{[4-{[(3R)-3-hydroxypyrrolidin-1-yl]methyl}-6-(trifluoromethyl)pyridin-2-yl]oxy}cyclohexyl)-3-[4-(7H-pyrrolo[2,3-d]pyrimidin-4-yl)-1H-pyrazol-1-yl]azetidin-3-yl}acetonitrile]

JAK2/JAK1 [1]: >10 | IC50 [2]: < 10 nM
Molecule: N#CC[C@]1(n2cc(-c3ncnc4[nH]ccc34)cn2)C[C@H](N2CCC(Oc3cc(CN4CC(O)C4)cc(C(F)(F)F)n3)CC2)C1 [Compound 11, {trans-3-(4-{[4-[(3-hydroxyazetidin-1-yl)methyl]-6-(trifluoromethyl)pyridin-2-yl]oxy}piperidin-1-yl)-1-[4-(7H-pyrrolo[2,3-d]pyrimidin-4-yl)-1H-pyrazol-1-yl]cyclobutyl}acetonitrile]

JAK2/JAK1 [1]: >10 | IC50 [2]: < 10 nM
Molecule: N#CCC1(n2cc(-c3ncnc4[nH]ccc34)cn2)CN([C@H]2CC[C@@H](Oc3cc(CN4CC[C@H](O)C4)cc(C(F)(F)F)n3)CC2)C1 [Compound 22, {1-(cis-4-{[4-{[(3S)-3-hydroxypyrrolidin-1-yl]methyl}-6-(trifluoromethyl)pyridin-2-yl]oxy}cyclohexyl)-3-[4-(7H-pyrrolo[2,3-d]pyrimidin-4-yl)-1H-pyrazol-1-yl]azetidin-3-yl}acetonitrile]
